Source: ChEMBL document CHEMBL3885861, “Open TG-GATES”

Species: Rattus norvegicus
Test: Open TG-GATES - Regimen: Single
Assay type: toxicity, organism-based, Sprague-Dawley
Parameters: regimen Single, gender Male, age 6 weeks
Conditions: in vivo, po, 1000 mg/kg, route gavage, dose level Middle; for APTT / Bas / Eos / Fbg / Hb / Ht / Lym / MCH / MCHC / MCV / Mono / Neu / PT / Plat / RBC / Ret / WBC: tissue Blood; for KIDNEY_L / KIDNEY_R / KIDNEY_TOTAL: tissue Kidney; for LIVER: tissue Liver; for A/G / ALP / ALT / AST / BUN / CRE / Ca / Cl / DBIL / GLC / IP / K / LDH / Na / PL / RALB / TBIL / TC / TG / TP / gamma-GTP: tissue Plasma

## CCN1CCCC1CNC(=O)c1cc(S(N)(=O)=O)ccc1OC (configuration not stated) [SULPIRIDE]
3 h
  TERMINAL_BW: 201.4 g
  APTT: 17.3 s
  Bas: 0%
  Eos: 0.6%
  Fbg: 253.4 mg/dL
  Hb: 12.6 g/dL
  Ht: 39.6%
  Lym: 78.4%
  MCH: 20.8 pg
  MCHC: 31.8%
  MCV: 65.2 fL
  Mono: 3.4%
  Neu: 16.8%
  PT: 13.6 s
  Plat: 109.3 x10_4/uL
  RBC: 608 x10_4/ul
  Ret: 8.1%
  WBC: 83.5 x10_2/uL
  KIDNEY_L: 0.9 g
  KIDNEY_R: 0.9 g
  KIDNEY_TOTAL: 1.8 g
  LIVER: 9.2 g
  A/G: 0.9
  ALP: 1375.8 IU/L
  ALT: 36.6 IU/L
  AST: 74.2 IU/L
  BUN: 10.4 mg/dL
  CRE: 0.2 mg/dL
  Ca: 10.8 mg/dL
  Cl: 106.6 meq/L
  DBIL: 0.004 mg/dL
  GLC: 169.8 mg/dL
  IP: 8.2 mg/dL
  K: 4 meq/L
  LDH: 116.6 IU/L
  Na: 142.6 meq/L
  PL: 126.2 mg/dL
  RALB: 2.4 g/dL
  TBIL: 0.068 mg/dL
  TC: 63.4 mg/dL
  TG: 54.2 mg/dL
  TP: 5.1 g/dL
  gamma-GTP: 1.8 IU/L
6 h
  TERMINAL_BW: 201.9 g
  APTT: 18.2 s
  Bas: 0.2%
  Eos: 0.8%
  Fbg: 279.2 mg/dL
  Hb: 13.1 g/dL
  Ht: 40.9%
  Lym: 79.6%
  MCH: 20.9 pg
  MCHC: 32.1%
  MCV: 65.2 fL
  Mono: 3%
  Neu: 15.8%
  PT: 13.5 s
  Plat: 123.7 x10_4/uL
  RBC: 628.2 x10_4/ul
  Ret: 8.4%
  WBC: 61.1 x10_2/uL
  KIDNEY_L: 0.9 g
  KIDNEY_R: 0.9 g
  KIDNEY_TOTAL: 1.7 g
  LIVER: 8.4 g
  A/G: 0.9
  ALP: 1420 IU/L
  ALT: 35.2 IU/L
  AST: 69.8 IU/L
  BUN: 8 mg/dL
  CRE: 0.2 mg/dL
  Ca: 10.7 mg/dL
  Cl: 107.4 meq/L
  DBIL: 0.006 mg/dL
  GLC: 175 mg/dL
  IP: 8.9 mg/dL
  K: 4.1 meq/L
  LDH: 101.8 IU/L
  Na: 142 meq/L
  PL: 137.8 mg/dL
  RALB: 2.4 g/dL
  TBIL: 0.07 mg/dL
  TC: 76.2 mg/dL
  TG: 45.6 mg/dL
  TP: 5.1 g/dL
  gamma-GTP: 1.4 IU/L
9 h
  TERMINAL_BW: 201.7 g
  APTT: 17.2 s
  Bas: 0%
  Eos: 1%
  Fbg: 308 mg/dL
  Hb: 13.7 g/dL
  Ht: 43%
  Lym: 71.2%
  MCH: 20.7 pg
  MCHC: 31.8%
  MCV: 65 fL
  Mono: 3.6%
  Neu: 23.8%
  PT: 13.3 s
  Plat: 131.4 x10_4/uL
  RBC: 661 x10_4/ul
  Ret: 7.7%
  WBC: 64.3 x10_2/uL
  KIDNEY_L: 0.9 g
  KIDNEY_R: 0.9 g
  KIDNEY_TOTAL: 1.8 g
  LIVER: 8.3 g
  A/G: 0.9
  ALP: 1435.8 IU/L
  ALT: 28.6 IU/L
  AST: 63.2 IU/L
  BUN: 7.6 mg/dL
  CRE: 0.2 mg/dL
  Ca: 10.7 mg/dL
  Cl: 107.6 meq/L
  DBIL: 0.002 mg/dL
  GLC: 178.2 mg/dL
  IP: 9.7 mg/dL
  K: 4 meq/L
  LDH: 106.2 IU/L
  Na: 141.6 meq/L
  PL: 151 mg/dL
  RALB: 2.5 g/dL
  TBIL: 0.066 mg/dL
  TC: 83.8 mg/dL
  TG: 65.2 mg/dL
  TP: 5.3 g/dL
  gamma-GTP: 1.2 IU/L
24 h
  TERMINAL_BW: 214.6 g
  APTT: 17.3 s
  Bas: 0%
  Eos: 1%
  Fbg: 290.8 mg/dL
  Hb: 13.9 g/dL
  Ht: 42.1%
  Lym: 77.8%
  MCH: 20.7 pg
  MCHC: 32.9%
  MCV: 62.9 fL
  Mono: 2.4%
  Neu: 18.4%
  PT: 12.8 s
  Plat: 123 x10_4/uL
  RBC: 670.2 x10_4/ul
  Ret: 6.7%
  WBC: 66.8 x10_2/uL
  KIDNEY_L: 0.9 g
  KIDNEY_R: 0.9 g
  KIDNEY_TOTAL: 1.9 g
  LIVER: 9.4 g
  A/G: 0.9
  ALP: 1599.4 IU/L
  ALT: 46 IU/L
  AST: 67.6 IU/L
  BUN: 17.2 mg/dL
  CRE: 0.2 mg/dL
  Ca: 11.2 mg/dL
  Cl: 105.2 meq/L
  DBIL: 0.018 mg/dL
  GLC: 178.8 mg/dL
  IP: 8.6 mg/dL
  K: 4.4 meq/L
  LDH: 145.4 IU/L
  Na: 142 meq/L
  PL: 157.6 mg/dL
  RALB: 2.6 g/dL
  TBIL: 0.056 mg/dL
  TC: 83 mg/dL
  TG: 112.4 mg/dL
  TP: 5.7 g/dL
  gamma-GTP: 1 IU/L
